# Compound: CC(C)=CC[C@@H](O)C1=CC(=O)c2c(O)ccc(O)c2C1=O [Shikonin] + O=C(CCCCCCC(=O)Nc1ccccc1)NO [Vorinostat] (partner 1 µM)
# Assay: relative viability (nuclei count vs DMSO), 5 days (fraction); higher = more cells survive
# Settings: first compound 0.01 µM
# Procedure, shortened: (§1)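 Relative viability is defined as nuclei in treated wells over nuclei in vehicle wells. Duplicate plates were run and medians reported. Lung cancer cell lines in 1536-well plates were dosed by pin tool one day after seeding, with one drug or with a fixed anchor-drug dose plus five library-drug doses (not always all listed) in √10 steps, and nuclei were counted after 5 days.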
row,Cell Line,relative viability
1,NCI-H1648,0.351
2,SK-MES-1,1.13
3,H3255,0.703
4,COR-L23,0.413
5,COR-L 105,0.841
6,IA-LM,1.08
7,LOU-NH91,0.921
8,ChaGo-K-1,0.746
9,NCI-H2170,0.856
10,NCI-H3122,1.07
11,HOP-62,0.663
12,HCC-44,1.14
13,NCI-H522,0.875
14,LU99A,0.459
15,BEN,0.567
16,HARA,0.546
17,SW 900,0.357
18,HCC-78,0.505
19,NCI-H441,0.875
20,LCLC-97TM1,0.872
21,NCI-H2023,0.645

# Same assay, conditions: first compound 0.1 µM
row,Cell Line,relative viability
1,NCI-H2342,0.722
2,PC-14,0.833
3,NCI-H1650,0.499
4,NCI-H2009,0.737
5,NCI-H1993,0.773
6,NCI-H520,0.718
7,PC-3 [JPC-3],0.792
8,LCLC-103H,0.877
9,NCI-H647,0.624
10,NCI-H2228,0.507
11,EMC-BAC-2,0.465
12,NCI-H2087,0.742
13,HCC-366,0.425
14,NCI-H1666,0.96
15,NCI-H650,0.418
16,LK-2,0.309
17,NCI-H2126,0.757
18,SK-MES-1,1.33
19,H3255,0.959

row,Cell Line,relative viability
1,COR-L23,0.449
2,COR-L 105,0.91
3,IA-LM,0.512
4,LOU-NH91,1.02
5,ChaGo-K-1,0.914
6,NCI-H2170,0.89
7,NCI-H3122,0.986
8,HOP-62,0.667
9,HCC-44,1.12
10,NCI-H522,1
11,LU99A,0.617
12,BEN,0.619
13,HARA,0.51
14,SW 900,0.458
15,HCC-78,0.472
16,NCI-H441,0.832
17,LCLC-97TM1,0.764
18,NCI-H2023,0.772

# Same assay, conditions: first compound 0.3162 µM
row,Cell Line,relative viability
1,NCI-H2342,0.78
2,PC-14,0.77
3,NCI-H1650,0.485
4,NCI-H2009,0.789
5,NCI-H1993,1.02
6,NCI-H520,0.717
7,PC-3 [JPC-3],0.781
8,LCLC-103H,0.801
9,NCI-H647,0.72
10,NCI-H2228,0.53
11,EMC-BAC-2,0.439
12,NCI-H2087,0.696
13,HCC-366,0.323
14,NCI-H1666,0.966
15,NCI-H650,0.465
16,LK-2,0.214
17,NCI-H2126,0.841
18,NCI-H1648,0.672
19,SK-MES-1,1.12

row,Cell Line,relative viability
1,H3255,0.916
2,COR-L23,0.471
3,COR-L 105,0.881
4,IA-LM,1.07
5,LOU-NH91,1.04
6,ChaGo-K-1,0.8
7,NCI-H2170,0.999
8,NCI-H3122,1.29
9,HOP-62,0.739
10,HCC-44,1.13
11,NCI-H522,0.903
12,LU99A,0.485
13,BEN,0.606
14,HARA,0.468
15,SW 900,0.377
16,HCC-78,0.514
17,NCI-H441,0.783
18,LCLC-97TM1,1.08
19,NCI-H2023,0.703

# Same assay, conditions: first compound 1 µM
row,Cell Line,relative viability
1,NCI-H2342,0.764
2,PC-14,0.484
3,NCI-H1650,0.483
4,NCI-H2009,0.649
5,NCI-H1993,0.806
6,NCI-H520,0.681
7,PC-3 [JPC-3],1.3
8,LCLC-103H,0.889
9,NCI-H647,0.513
10,NCI-H2228,0.785
11,EMC-BAC-2,0.659
12,NCI-H2087,0.689
13,HCC-366,0.484
14,NCI-H1666,1.12
15,NCI-H650,0.439
16,LK-2,0.316
17,NCI-H2126,0.819
18,NCI-H1648,0.509
19,SK-MES-1,1.26

row,Cell Line,relative viability
1,H3255,0.855
2,COR-L23,0.308
3,COR-L 105,0.853
4,IA-LM,1
5,LOU-NH91,0.957
6,ChaGo-K-1,0.762
7,NCI-H2170,0.816
8,NCI-H3122,0.944
9,HOP-62,0.558
10,HCC-44,1.03
11,NCI-H522,0.958
12,LU99A,0.494
13,BEN,0.617
14,HARA,0.605
15,SW 900,0.576
16,HCC-78,0.415
17,NCI-H441,0.695
18,LCLC-97TM1,0.928
19,NCI-H2023,0.736

# Compound: CC(C)N(CCCNC(=O)Nc1ccc(C(C)(C)C)cc1)C[C@H]1O[C@@H](n2ccc3c(N)ncnc32)[C@H](O)[C@@H]1O + Cc1cc(Nc2cc(N3CCN(C)CC3)nc(Sc3ccc(NC(=O)C4CC4)cc3)n2)n[nH]1 [Tozasertib] (partner 0.1 µM)
# Assay: as above
# Settings: first compound 0.08 µM
# Procedure, shortened: as §1
row,Cell Line,relative viability
1,NCI-H2342,0.57
2,NCI-H1623,0.426
3,PC-14,0.529
4,NCI-H1650,0.483
5,NCI-H2009,0.765
6,NCI-H1993,0.564
7,NCI-H520,0.453
8,PC-3 [JPC-3],0.856
9,LCLC-103H,0.603
10,NCI-H647,0.261
11,NCI-H2228,0.261
12,EMC-BAC-2,0.287
13,NCI-H2087,0.243
14,HCC-366,0.0971
15,NCI-H1666,0.512
16,NCI-H650,0.689
17,LK-2,0.159
18,NCI-H2126,0.844
19,NCI-H1648,0.445

row,Cell Line,relative viability
1,SK-MES-1,0.855
2,H3255,0.735
3,COR-L23,0.208
4,COR-L 105,0.357
5,LOU-NH91,0.635
6,ChaGo-K-1,0.242
7,NCI-H2170,0.723
8,NCI-H3122,0.477
9,HOP-62,0.369
10,HCC-44,0.99
11,NCI-H522,0.538
12,LU99A,0.279
13,BEN,0.49
14,HARA,0.097
15,SW 900,0.683
16,HCC-78,0.371
17,NCI-H441,0.599
18,LCLC-97TM1,0.21
19,NCI-H2023,0.437

# Same assay, conditions: first compound 0.253 µM
row,Cell Line,relative viability
1,NCI-H2342,0.559
2,NCI-H1623,0.452
3,PC-14,0.598
4,NCI-H1650,0.358
5,NCI-H2009,0.727
6,NCI-H520,0.512
7,PC-3 [JPC-3],0.976
8,LCLC-103H,0.519
9,NCI-H647,0.318
10,NCI-H2228,0.314
11,EMC-BAC-2,0.314
12,NCI-H2087,0.252
13,HCC-366,0.163
14,NCI-H1666,0.563
15,NCI-H650,0.768
16,LK-2,0.178
17,NCI-H2126,0.834
18,NCI-H1648,0.425
19,SK-MES-1,0.959

row,Cell Line,relative viability
1,H3255,0.473
2,COR-L23,0.195
3,COR-L 105,0.357
4,LOU-NH91,0.662
5,ChaGo-K-1,0.245
6,NCI-H2170,0.72
7,NCI-H3122,0.489
8,HOP-62,0.375
9,HCC-44,1.11
10,NCI-H522,0.553
11,LU99A,0.316
12,BEN,0.642
13,HARA,0.13
14,SW 900,0.696
15,HCC-78,0.383
16,NCI-H441,0.66
17,LCLC-97TM1,0.17
18,NCI-H2023,0.38

# Same assay, conditions: first compound 0.8 µM
row,Cell Line,relative viability
1,NCI-H2342,0.415
2,NCI-H1623,0.414
3,PC-14,0.598
4,NCI-H2009,0.798
5,PC-3 [JPC-3],0.831
6,LCLC-103H,0.432
7,NCI-H2228,0.264
8,EMC-BAC-2,0.285
9,NCI-H2087,0.243
10,HCC-366,0.157
11,NCI-H1666,0.632
12,NCI-H650,0.691
13,LK-2,0.204
14,NCI-H2126,0.812
15,NCI-H1648,0.534
16,SK-MES-1,0.962

row,Cell Line,relative viability
1,H3255,0.466
2,COR-L23,0.256
3,COR-L 105,0.331
4,LOU-NH91,0.314
5,ChaGo-K-1,0.222
6,NCI-H2170,0.645
7,NCI-H3122,0.382
8,HOP-62,0.335
9,HCC-44,0.869
10,NCI-H522,0.542
11,LU99A,0.276
12,BEN,0.485
13,HARA,0.109
14,HCC-78,0.351
15,LCLC-97TM1,0.258
16,NCI-H2023,0.345

# Same assay, conditions: first compound 2.53 µM
row,Cell Line,relative viability
1,NCI-H2342,0.472
2,NCI-H1623,0.408
3,PC-14,0.6
4,NCI-H1650,0.398
5,NCI-H2009,0.695
6,NCI-H1993,0.624
7,NCI-H520,0.416
8,PC-3 [JPC-3],0.851
9,LCLC-103H,0.516
10,NCI-H647,0.416
11,NCI-H2228,0.277
12,EMC-BAC-2,0.275
13,NCI-H2087,0.259
14,HCC-366,0.0768
15,NCI-H1666,0.563
16,NCI-H650,0.731
17,LK-2,0.195
18,NCI-H2126,0.843
19,NCI-H1648,0.387

row,Cell Line,relative viability
1,SK-MES-1,0.92
2,H3255,0.457
3,COR-L23,0.23
4,COR-L 105,0.336
5,LOU-NH91,0.682
6,ChaGo-K-1,0.209
7,NCI-H2170,0.709
8,NCI-H3122,0.383
9,HOP-62,0.309
10,HCC-44,1.01
11,NCI-H522,0.588
12,LU99A,0.237
13,BEN,0.532
14,HARA,0.0913
15,SW 900,0.543
16,HCC-78,0.366
17,NCI-H441,0.716
18,LCLC-97TM1,0.248
19,NCI-H2023,0.375

# Same assay, conditions: first compound 8 µM
row,Cell Line,relative viability
1,NCI-H2342,0.56
2,NCI-H1623,0.45
3,PC-14,0.551
4,NCI-H1650,0.439
5,NCI-H2009,0.713
6,NCI-H1993,0.591
7,NCI-H520,0.437
8,PC-3 [JPC-3],0.763
9,LCLC-103H,0.478
10,NCI-H647,0.267
11,NCI-H2228,0.23
12,EMC-BAC-2,0.275
13,NCI-H2087,0.207
14,HCC-366,0.103
15,NCI-H1666,0.695
16,NCI-H650,0.696
17,LK-2,0.17
18,NCI-H2126,0.786
19,NCI-H1648,0.495

row,Cell Line,relative viability
1,SK-MES-1,0.872
2,H3255,0.609
3,COR-L23,0.201
4,COR-L 105,0.316
5,LOU-NH91,0.607
6,ChaGo-K-1,0.23
7,NCI-H2170,0.74
8,NCI-H3122,0.353
9,HOP-62,0.367
10,HCC-44,1.04
11,NCI-H522,0.615
12,LU99A,0.261
13,BEN,0.452
14,HARA,0.0981
15,SW 900,0.438
16,HCC-78,0.484
17,NCI-H441,0.577
18,LCLC-97TM1,0.21
19,NCI-H2023,0.338
